The values below come from patent US20200000842A1, “COMPOSITION AND METHOD FOR IMPROVING QOL WITH MOLECULAR HYDROGEN IN CANCER- HAVING SUBJECT” (MiZ Company Limited, priority 2018, published 2020).

Molecules are shown by their SMILES.

Series [1] deals with patient with terminal systemic metastatic cancer. The conditions noted are these: person, 3 times about 2 hours each over about 1 month. The procedure: A patient with terminal systemic metastatic cancer (person) breathed a mixed gas of hydrogen and air using a gaseous hydrogen inhalation apparatus (MHG-2000α (registered trademark); MiZ Company Limited, Kanagawa, Japan) total 3 times for about 2 hours each time over about 1 month before death of the patient. The hydrogen concentration in MHG-2000α is about 6 to 7% by volume (hydrogen generation rate: about 140 ml/min).

The subject of series [2] is patient with stage 4 terminal pancreatic cancer. The procedure:
A patient with stage 4 terminal pancreatic cancer (person) breathed a mixed gas of hydrogen and air using a gaseous hydrogen inhalation apparatus (MHG-2000α (registered trademark); MiZ Company Limited) for about 1 to 3 hours per day over about 8 months. The hydrogen concentration in MHG-2000α is about 6 to 7% by volume (hydrogen generation rate: about 140 ml/min).

The subject of series [3] is patient with terminal pancreatic cancer. The following applies: person. The procedure:
A patient with terminal pancreatic cancer (person) breathed a mixed gas of hydrogen and air using a gaseous hydrogen inhalation apparatus (MHG-2000α (registered trademark); MiZ Company Limited) over about 4 months. Here, the mixed gas of hydrogen and air was breathed twice a week (duration each time: 1 to 3 hours) over first 2 months and for about 24 hours per day over subsequent 2 months. The hydrogen concentration in MHG-2000α is about 6 to 7% by volume (hydrogen generation rate: about 140 ml/min).

The conditions of series [4]: normal temperature and normal pressure; cited from earlier work.
The mark [5] stands for this setting: about 6 to 7% by volume hydrogen.
Where [6] appears, read: about 6 to 7% by volume hydrogen over about 4 months.

For `[HH]` [hydrogen gas, molecular hydrogen], in series [1] (setting [5]), the appetite result was “recovered” and the complexion entry is on record as “improved”. The cancerous pain entry in series [1] (mixed gas of hydrogen and air, about 6 to 7% by volume, no opioid) is listed as “reduced”. Besides, in series [2] (about 6 months after the breathing of hydrogen gas, FIG. 1), the “blood level of CA19-9 (pancreatic cancer marker)” value is reported as “sharply decreased”. Besides, the physical fatigue result in series [2] (after the first breathing) is given as “hardly complained about physical fatigue”. Further, the “survival after being told life expectancy of 3 months” value in series [2] (person, stage 4, breathing about 1 to 3 hours per day) is listed as ≥ 9 months. Further, the “growth of cancer by CT imaging examination once a month” value in series [2] (person, about 6 to 7% by volume hydrogen, about 1 to 3 hours per day over about 8 months) was “no tendency of growth of cancer”. Besides, in series [3] (setting [6]), the appetite entry is recorded as “had appetite” and the insomnia result was “improved in insomnia”. The cancerous pain result in series [3] (about 6 to 7% by volume hydrogen over about 4 months (twice a week 1 to 3 hours for 2 months, then about 24 hours per day for 2 months), no opioid) was “did not complain about pain or oppression”. For the same molecule, the solubility in water result in series [4] is “about 1.6 ppm”.
